Data published in patent US12708136B2, “Supported nicotine composition” (priority 2021, dated 2026).

Settings: nicotine used in the experiments
Procedure: Mixtures were prepared of 10%, 20% and 50% by weight of nicotine on Florite® PS-200 grade and on Florite® R-grade.

CN1CCCC1c1cccnc1 (stereo not shown) [nicotine]
starting level of impurity myosmine: 0.14%
